Source: patent publication US9642804B2, “Cationic lipids with various head groups for oligonucleotide delivery” (priority 2009, dated 2017)

Assays:
[1] = system: mRNA transcript for the firefly (Photinus pyralis) luciferase gene; assay: Mouse in vivo efficacy, luciferase mouse model (liver bioluminescence, IVIS); details: for Average % Inhibition of Bioluminescence: LNP (cationic lipid/cholesterol/PEG-DMG 60/38/2) with Luc siRNA, tail vein, 48 hours post dose, relative to pre-dose
Procedure: (§1) LNPs utilizing Compound 9 or 12, in the nominal compositions described immediately above, were evaluated for in vivo efficacy and induction of inflammatory cytokines in a luciferase mouse model. The siRNA targets the mRNA transcript for the firefly (Photinus pyralis) luciferase gene (Accession # M15077). […] The in vivo luciferase model employs a transgenic mouse in which the firefly luciferase coding sequence is present in all cells. ROSA26-LoxP-Stop-LoxP-Luc (LSL-Luc) transgenic mice licensed from the Dana Farber Cancer Institute are induced to express the Luciferase gene by first removing the LSL sequence with a recombinant Ad-Cre virus (Vector Biolabs). Due to the organo-tropic nature of the virus, expression is limited to the liver when delivered via tail vein injection. Luciferase expression levels in liver are quantitated by measuring light output, using an IVIS imager (Xenogen) following administration of the luciferin substrate (Caliper Life Sciences). Pre-dose luminescence levels are measured prior to administration of the RDVs. Luciferin in PBS (15 mg/mL) is intraperitoneally (IP) injected in a volume of 150 uL. After a four minute incubation period mice are anesthetized with isoflurane and placed in the IVIS. imager. The RDVs (containing siRNA) in PBS vehicle were tail vein injected in a volume of 0.2 mL. Final dose levels ranged from 0.3 to 3 mg/kg siRNA. PBS vehicle alone was dosed as a control. Three hours post dose, mice were bled retro-orbitally to obtain plasma for cytokine analysis. Mice were imaged 48 hours post dose using the method described above. Changes in luciferin light output directly correlate with luciferase mRNA levels and represent an indirect measure of luciferase siRNA activity. In vivo efficacy results are expressed as % inhibition of luminescence relative to pre-dose luminescence levels. Plasma cytokine levels were determined using the SearchLight multiplexed cytokine chemoluminescent array (Pierce/Thermo). Systemic administration of the luciferase siRNA RDVs decreased luciferase expression in a dose dependant manner. […] Compound 12, (Table 1 and FIG. 2). […] However, average cytokine induction was lower in the animals dosed with the Compound 9 RDV, relative to the Compound 12 RDV.(FIG. 1).

cytokines IL-6 and mKC = assay: Mouse in vivo cytokine induction 3 hours post injection (plasma, SearchLight array); details: Luc siRNA RDV; plasma three hours post dose
Procedure: as §1

[2] = Rat in vivo toxicity, serum ALT and AST; design: species or system Sprague-Dawley rat; details: ApoB siRNA RDV; for LFTs relative to PBS control dosed rats: serum 24 hours after dosing
Procedure: After LNP administration, rats are placed in cages with normal diet and water present. Six hours post dose, food is removed from the cages. Animal necropsy is performed 24 hours after LNP dosing. Rats are anesthetized under isoflurane for 5 minutes, then maintained under anesthesia by placing them in nose cones continuing the delivery of isoflurane until ex-sanguination is completed. Blood is collected from the vena cava using a 23 guage butterfly venipuncture set and aliquoted to serum separator vacutainers for serum chemistry analysis. Punches of the excised caudate liver lobe are taken and placed in RNA Later (Ambion) for mRNA analysis. Preserved liver tissue was homogenized and total RNA isolated using a Qiagen bead mill and the Qiagen miRNA-Easy RNA isolation kit following the manufacturer's instructions. Liver ApoB mRNA levels were determined by quantitative RT-PCR. Message was amplified from purified RNA utilizing a rat ApoB commercial probe set (Applied Biosystems Cat # RN01499054_ml). The PCR reaction was performed on an ABI 7500 instrument with a 96-well Fast Block. The ApoB mRNA level is normalized to the housekeeping PPIB (NM 011149) mRNA. PPIB mRNA levels were determined by RT-PCR using a commercial probe set (Applied Biosytems Cat. No. Mm00478295_ml). Results are expressed as a ratio of ApoB mRNA/PPIB mRNA. All mRNA data is expressed relative to the PBS control dose. Serum ALT and AST analysis were performed on the Siemens Advia 1800 Clinical Chemistry Analyzer utilizing the Siemens alanine aminotransferase (Cat# 03039631) and aspartate aminotransferase (Cat# 03039631) reagents.

[3] = system: mRNA transcript for the ApoB gene; assay: Rhesus monkey in vivo efficacy, serum LDL-C as surrogate marker of ApoB mRNA reduction; design: species or system Macaca mulatta (rhesus) monkey; details: ApoB siRNA RDV; 3.6 mg/kilogram siRNA intravenous; average of two monkeys
Procedure: LNPs utilizing Compounds 9 or 12 in the nominal compositions described above, were evaluated for in vivo efficacy and increases in alanine amino transferases (ALT) and aspartate amino transferase (AST) in male or female Macaca mulatta (rhesus) monkeys. The siRNA targets the mRNA transcript for the ApoB gene (Accession # XM 001097404). […] The RDVs (containing siRNA) in PBS vehicle were administered by intravenous injection in the saphenous vein at an injection rate of 20 mL/minute to a dose level of 3.6 mg/kilogram siRNA. The injection volumes were from 1.9 to 2.1 mL/kilogram and monkeys ranged in weight from 2.5 to 4.5 kilograms. Each RDV or PBS control was administered to two monkeys. At multiple days post dose, 1 mL blood samples were drawn from the femoral artery for serum chemistry analysis. Monkeys were fasted overnight prior to blood draws. Serum ALT and AST analysis were performed on the Siemens Advia 1800 Clinical Chemistry Analyzer utilizing the Siemens alanine aminotransferase (Cat# 03039631) and aspartate aminotransferase (Cat# 03039631) reagents. As a measure of efficacy, LDL-C was monitored as a downstream surrogate marker of ApoB mRNA reduction. At eight days post systemic administration, of RDVs containing Compounds 9 or 12, reduced serum levels of LDL-C to less than 50% of pre-dose levels (FIG. 4). […]

[4] = Rhesus monkey in vivo toxicity, serum ALT and AST; design: species or system Macaca mulatta (rhesus) monkey; details: ApoB siRNA RDV; 3.6 mg/kilogram siRNA intravenous
Procedure: LNPs utilizing Compounds 9 or 12 in the nominal compositions described above, were evaluated for in vivo efficacy and increases in alanine amino transferases (ALT) and aspartate amino transferase (AST) in male or female Macaca mulatta (rhesus) monkeys. The siRNA targets the mRNA transcript for the ApoB gene (Accession # XM 001097404). […] The RDVs (containing siRNA) in PBS vehicle were administered by intravenous injection in the saphenous vein at an injection rate of 20 mL/minute to a dose level of 3.6 mg/kilogram siRNA. The injection volumes were from 1.9 to 2.1 mL/kilogram and monkeys ranged in weight from 2.5 to 4.5 kilograms. Each RDV or PBS control was administered to two monkeys. At multiple days post dose, 1 mL blood samples were drawn from the femoral artery for serum chemistry analysis. Monkeys were fasted overnight prior to blood draws. Serum ALT and AST analysis were performed on the Siemens Advia 1800 Clinical Chemistry Analyzer utilizing the Siemens alanine aminotransferase (Cat# 03039631) and aspartate aminotransferase (Cat# 03039631) reagents. As a measure of efficacy, LDL-C was monitored as a downstream surrogate marker of ApoB mRNA reduction. At eight days post systemic administration, of RDVs containing Compounds 9 or 12, reduced serum levels of LDL-C to less than 50% of pre-dose levels (FIG. 4). The RDV containing Compound 9 reduced LDL-C levels to a greater extent than the RDV containing Compound 12 (ave.: −63% vs. −53%). ALT and AST were elevated relative to predose values in monkeys treated with both Compounds 9 and 12 RDVs (FIG. 4).

[5] = rat serum 24 hours after dosing

SMILES	Average % Inhibition of Bioluminescence ([1]; 0.1 mg Kg^−1) [%]	Average % Inhibition of Bioluminescence ([1]; 0.3 mg Kg^−1) [%]	Average % Inhibition of Bioluminescence ([1]; 1.0 mg Kg^−1) [%]	Mouse plasma level of IL-6 relative to the PBS control (cytokines IL-6 and mKC)	Mouse plasma level of mKC relative to the PBS control (cytokines IL-6 and mKC)	AST levels, comparison of the RDVs [2, 5]	LFTs relative to PBS control dosed rats [2]	Reduction of LDL-C levels (ave.) [3] [%]	ALT relative to predose values [4]	AST relative to predose values [4]	Elevation of ALT, comparison of the RDVs [4]	Elevation of AST, comparison of the RDVs [4]	Efficacy in decreasing luciferase expression, comparison of the RDVs ([1]; Luc siRNA RDV, Compound 9 RDV versus Compound 12 RDV)	Average cytokine induction, Compound 9 RDV relative to Compound 12 RDV (cytokines IL-6 and mKC)	ALT levels, comparison of the RDVs [2, 5]
CCCCC/C=C\C/C=C\CCCCCCCCOCC(CN(C)C)OCCCCCCCCO[C@H]1CC[C@@]2(C)C(=CC[C@H]3[C@@H]4CC[C@H]([C@H](C)CCCC(C)C)[C@@]4(C)CC[C@@H]32)C1 (stereo partly shown) [Compound 12, S-Octyl CLinDMA, reference compound]	54	74	88	significantly increased	significantly increased	increased more strongly	An increase in LFTs	−53	elevated	elevated	approximately equivalent	elevated to a markedly higher level			
CCCCCCCC/C=C\CCCCCCCCOC[C@@H](COCCCCCCO[C@H]1CC[C@@]2(C)C(=CC[C@@H]3C2CC[C@@]2(C)C3CC[C@@H]2[C@H](C)CCCC(C)C)C1)N(C)C (stereo partly shown) [Compound 9]	80	89	91	significantly increased	significantly increased		An increase in LFTs	−63	elevated	elevated	approximately equivalent		Greater efficacy	lower	increased to a greater extent
